What all share (assay type): cell-based
Assay [1] has as its system Pseudomonas aeruginosa UI-18: Wild-type (PA-7). The assay is described as follows: MIC determination (CLSI), strain PA-7. The following applies: Pseudomonas aeruginosa UI-18, wild-type; unit assumed. A digest of the protocol:
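Strain tested was P. aeruginosa UI-18, a wild-type isolate labelled PA-7. Minimum inhibitory concentrations followed CLSI dilution methodology for aerobically growing bacteria (M7-A7, M100-S18).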

Assay [2] concerns Acinetobacter baumanii/haemolyticus: Multidrug-resistant clinical isolate (AB-3167). Nature of the assay: MIC determination (CLSI), strain AB-3167. The settings on record: unit assumed. A digest of the protocol:
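Using the multidrug-resistant Acinetobacter baumanii/haemolyticus clinical isolate AB-3167, minimum inhibitory concentrations were determined following CLSI dilution susceptibility standards.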

The test system of assay [3] is Escherichia coli EC-1: VOGEL, mouse virulent. Nature of the assay: MIC determination (CLSI), strain EC-1. The following applies: Escherichia coli EC-1, VOGEL, mouse virulent; unit assumed. The procedure, abridged: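 The mouse-virulent VOGEL isolate of E. coli, EC-1, served as test organism. Minimum inhibitory concentration was measured by CLSI dilution methodology (M7-A7; M100-S18 standards).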

Structures can show the parent of a compound that is named as a salt.

Turning to `C[C@@](CCn1ccc(-c2ccc(-c3ccon3)cc2)cc1=O)(C(=O)NO)S(C)(=O)=O` [Example 68-F, (2R)-N-hydroxy-4-[4-(4-isoxazol-3-ylphenyl)-2-oxopyridin-1(2H)-yl]-2-methyl-2-(methylsulfonyl)butanamide], the PA-7 (MIC) in assay [1] worked out at 0.5 µg/mL. In assay [2], the AB-3167 (MIC) is more than 64 µg/mL. The compound further showed an EC-1 (MIC) in assay [3] of 0.25 µg/mL.

With `C[C@@](CCn1ccc(-c2ccc3c(c2)OCCO3)cc1=O)(C(=O)NO)S(C)(=O)=O` [Example 18, (2R)-4-[4-(2,3-dihydro-1,4-benzodioxin-6-yl)-2-oxopyridin-1(2H)-yl]-N-hydroxy-2-methyl-2-(methylsulfonyl)butanamide], in assay [1], the PA-7 (MIC) came to 1 µg/mL. In assay [2], this compound registered an AB-3167 (MIC) of more than 64 µg/mL. The compound further displayed an EC-1 (MIC) in assay [3] of more than 64 µg/mL.

`C[C@@](CCn1ccc(-c2ccc([C@H]3C[C@H](O)C3)cc2)cc1=O)(C(=O)NO)S(C)(=O)=O` [Example 6, (2R)-N-hydroxy-4-{4-[4-(trans-3-hydroxycyclobutyl)phenyl]-2-oxopyridin-1(2H)-yl}-2-methyl-2-(methylsulfonyl)butanamide] registered a PA-7 (MIC) in assay [1] of 4 µg/mL. For the same compound, in assay [2], the AB-3167 (MIC) is more than 64 µg/mL. This compound registered an EC-1 (MIC) in assay [3] of 4 µg/mL.

Regarding `CC(O)c1ccc(-c2ccn(CCC(C)(C(=O)NO)S(C)(=O)=O)c(=O)c2)cc1` (stereo not drawn) [Example 68-Q, N-hydroxy-4-{4-[4-(1-hydroxyethyl)phenyl]-2-oxopyridin-1(2H)-yl}-2-methyl-2-(methylsulfonyl)butanamide], the PA-7 (MIC) in assay [1] was 16 µg/mL. Also, in assay [2], the AB-3167 (MIC) is more than 64 µg/mL. The EC-1 (MIC) in assay [3] is 64 µg/mL.

In assay [1], `C[C@@](CCn1ccc(-c2ccc(F)c(F)c2F)cc1=O)(C(=O)NO)S(C)(=O)=O` [Example 50, (2R)-N-hydroxy-2-methyl-2-(methylsulfonyl)-4-[2-oxo-4-(2,3,4-trifluorophenyl)pyridin-1(2H)-yl]butanamide] came in with a PA-7 (MIC) of 0.5 µg/mL. In assay [2], this compound came in with an AB-3167 (MIC) of 64 µg/mL. Further, the EC-1 (MIC) in assay [3] turned out to be 0.5 µg/mL.

Consider `C[C@@](CCn1ccc(-c2ccc(N3CCC(CO)CC3)cc2)cc1=O)(C(=O)NO)S(C)(=O)=O` [Example 61, (2R)-N-hydroxy-4-[4-{4-[4-(hydroxymethyl)piperidin-1-yl]phenyl}-2-oxopyridin-1(2H)-yl]-2-methyl-2-(methylsulfonyl)butanamide], for which, in assay [1], the PA-7 (MIC) came to 2 µg/mL. Moreover, the AB-3167 (MIC) in assay [2] is more than 64 µg/mL. Further, the EC-1 (MIC) in assay [3] was found to be 64 µg/mL.

For the compound `C[C@@](CCn1ccc(-c2cccc(F)c2F)cc1=O)(C(=O)NO)S(C)(=O)=O` [Example 14, (2R)-4-[4-(2,3-difluorophenyl)-2-oxopyridin-1(2H)-yl]-N-hydroxy-2-methyl-2-(methylsulfonyl)butanamide], the PA-7 (MIC) in assay [1] came out at 0.5 µg/mL. Besides, the AB-3167 (MIC) in assay [2] was more than 64 µg/mL. For the same compound, the EC-1 (MIC) in assay [3] came out at 0.5 µg/mL.

Consider `C[C@@](CCn1ccc(CCc2ccccc2)cc1=O)(C(=O)NO)S(C)(=O)=O` [Example 3, (2R)-N-hydroxy-2-methyl-2-(methylsulfonyl)-4-[2-oxo-4-(2-phenylethyl)pyridin-1(2H)-yl]butanamide], for which, in assay [1], the PA-7 (MIC) was found to be 4 µg/mL. This compound also displayed an AB-3167 (MIC) in assay [2] of 64 µg/mL. The compound also gave an EC-1 (MIC) in assay [3] of 1 µg/mL.

Turning to `CC(CCn1ccc(-c2ccc(-c3ccncc3)cc2)cc1=O)(C(=O)NO)S(C)(=O)=O` (racemic) [Example 35, N-Hydroxy-2-methyl-2-(methylsulfonyl)-4-[2-oxo-4-(4-pyridin-4-ylphenyl)pyridin-1(2H)-yl]butanamide], the PA-7 (MIC) in assay [1] was found to be 2 µg/mL. Besides, the AB-3167 (MIC) in assay [2] is more than 64 µg/mL. The compound further displayed an EC-1 (MIC) in assay [3] of 0.5 µg/mL.

`C[C@@](CCn1ccc(N2CC(c3ccccc3)C2)cc1=O)(C(=O)NO)S(C)(=O)=O` [Example 64, (2R)-N-Hydroxy-2-methyl-2-(methylsulfonyl)-4-[2-oxo-4-(3-phenylazetidin-1-yl)pyridin-1(2H)-yl]butanamide] showed a PA-7 (MIC) in assay [1] of 8 µg/mL. The same compound had an AB-3167 (MIC) in assay [2] of more than 64 µg/mL. Moreover, the EC-1 (MIC) in assay [3] amounted to 8 µg/mL.

For the compound `C[C@@](CCn1ccc(-c2ccc3ccccc3c2)cc1=O)(C(=O)NO)S(C)(=O)=O` [Example 68-A, (2R)-N-hydroxy-2-methyl-2-(methylsulfonyl)-4-[4-(2-naphthyl)-2-oxopyridin-1(2H)-yl]butanamide], in assay [1], the PA-7 (MIC) came out at 0.5 µg/mL. Besides, the AB-3167 (MIC) in assay [2] was more than 64 µg/mL. The compound also displayed an EC-1 (MIC) in assay [3] of 0.06 µg/mL.

Take `CC(CCn1ccc(-c2ccc(OCCCN3CCC(F)(F)CC3)cc2)cc1=O)(C(=O)NO)S(C)(=O)=O` (racemic) [Example 4, (+/−)-4-[4-{4-[3-(4,4-Difluoropiperidin-1-yl)propoxy]phenyl}-2-oxopyridin-1(2H)-yl]-N-hydroxy-2-methyl-2-(methylsulfonyl)butanamide hydrochloride]: the PA-7 (MIC) in assay [1] amounted to 4 µg/mL. The same compound yielded an AB-3167 (MIC) in assay [2] of more than 64 µg/mL. The EC-1 (MIC) in assay [3] turned out to be 1 µg/mL.

As to `CC(CCn1ccc(-c2ccc(OCCCO)cc2)cc1=O)(C(=O)NO)S(C)(=O)=O` (stereo not drawn) [Example 30, N-hydroxy-4-{4-[4-(3-hydroxypropoxy)phenyl]-2-oxopyridin-1(2H)-yl}-2-methyl-2-(methylsulfonyl)butanamide], the PA-7 (MIC) in assay [1] was 4 µg/mL. In assay [2], this compound registered an AB-3167 (MIC) of more than 64 µg/mL. In assay [3], this compound yielded an EC-1 (MIC) of 2 µg/mL.

`C[C@@](CCn1ccc(-c2c(F)ccc(F)c2F)cc1=O)(C(=O)NO)S(C)(=O)=O` [Example 22, (2R)-N-hydroxy-2-methyl-2-(methylsulfonyl)-4-[2-oxo-4-(2,3,6-trifluorophenyl)pyridin-1(2H)-yl]butanamide] had a PA-7 (MIC) in assay [1] of 4 µg/mL. Further, in assay [2], the AB-3167 (MIC) is more than 64 µg/mL. The compound further had an EC-1 (MIC) in assay [3] of 2 µg/mL.

The compound `CCS(=O)(=O)C(C)(CCn1ccc(-c2ccccc2)cc1=O)C(=O)NO` (stereo not drawn) [Example 57, 2-(ethylsulfonyl)-N-hydroxy-2-methyl-4-(2-oxo-4-phenylpyridin-1(2H)-yl)butanamide] showed a PA-7 (MIC) in assay [1] of 64 µg/mL. The same compound yielded an AB-3167 (MIC) in assay [2] of 16 µg/mL. In assay [3], the EC-1 (MIC) was determined as 8 µg/mL.

Compound `C[C@@](CCn1ccc(-c2ccc(OCCC3CC(O)C3)cc2)cc1=O)(C(=O)NO)S(C)(=O)=O` (stereo partly drawn) [Example 32, (2R)-N-hydroxy-4-[4-{4-[2-(3-hydroxycyclobutyl)ethoxy]phenyl}-2-oxopyridin-1(2H)-yl]-2-methyl-2-(methylsulfonyl)butanamide] registered a PA-7 (MIC) in assay [1] of 1 µg/mL. Also, the AB-3167 (MIC) in assay [2] was more than 64 µg/mL. For the same compound, in assay [3], the EC-1 (MIC) was determined as 0.25 µg/mL.

`C[C@@](CCn1ccc(-c2ccccc2F)cc1=O)(C(=O)NO)S(C)(=O)=O` [Example 43, (2R)-4-[4-(2-fluorophenyl)-2-oxopyridin-1(2H)-yl]-N-hydroxy-2-methyl-2-(methylsulfonyl)butanamide] yielded a PA-7 (MIC) in assay [1] of 0.5 µg/mL. In addition, the AB-3167 (MIC) in assay [2] was more than 64 µg/mL. The EC-1 (MIC) in assay [3] turned out to be 1 µg/mL.

Consider `Cc1nc(-c2ccc(-c3ccn(CC[C@](C)(C(=O)NO)S(C)(=O)=O)c(=O)c3)cc2)co1` [Example 25, (2R)-N-hydroxy-2-methyl-4-{4-[4-(2-methyl-1,3-oxazol-4-yl)phenyl]-2-oxopyridin-1(2H)-yl}-2-(methylsulfonyl)butanamide], for which the PA-7 (MIC) in assay [1] worked out at 2 µg/mL. Also, the AB-3167 (MIC) in assay [2] is more than 64 µg/mL. This compound gave an EC-1 (MIC) in assay [3] of 1 µg/mL.
